Assay results published in the PolyMetriX glass transition set.
± gives the standard deviation of the reports.

Row | Structure (SMILES) | glass transition temperature
1 | *CCCCCCNC(=O)CCCCCCCCC(=O)N* (repeat unit) [Poly(hexamethylene sebacamide) ] | 40 ± 4.1 °C
2 | *OP(=O)(Oc1ccccc1)Oc1ccc(*)cc1 (repeat unit) | 97.00 °C
3 | */C(=C/c1cc(OC)c(/C=C(/c2ccc(*)cc2)c2ccc(OC)cc2)cc1OC)c1ccc(OC)cc1 (repeat unit) | 170.00 °C
4 | *c1ccc(Sc2ccc(-c3nn(-c4ccc(S(=O)(=O)c5ccc(-n6nc(*)c7ccccc7c6=O)cc5)cc4)c(=O)c4ccccc34)cc2)cc1 (repeat unit) | 279.00 °C
5 | *c1ccc(Cc2ccc(N3C(=O)N(c4ccc(Cc5ccc(N6C(=O)N(*)C(C)(C)C6=O)cc5)cc4)C(=O)C3(C)C)cc2)cc1 (repeat unit) | 259.50 °C
6 | *Oc1c(F)c(F)c(COC(c2cccc(C(OCc3c(F)c(F)c(Oc4ccc(Cc5ccc(*)cc5)cc4)c(F)c3F)(C(F)(F)F)C(F)(F)F)c2)(C(F)(F)F)C(F)(F)F)c(F)c1F (repeat unit) | 94.00 °C
7 | *Oc1ccc(NC(=O)c2cc(C(c3ccc(C(=O)O)c(C(=O)Nc4ccc(Oc5ccc(C(c6ccc(*)cc6)(C(F)(F)F)C(F)(F)F)cc5)cc4)c3)(C(F)(F)F)C(F)(F)F)ccc2C(=O)O)cc1 (repeat unit) | 260.00 °C
8 | *CCOCCOCCOCCOCCOCCOC(=O)NCCCCCCNC(=O)O* (repeat unit) | -31.00 °C
9 | *O[Si](C)(C)CCCCCCOC(=O)C(C)Oc1ccc(OC(=O)c2ccc(-c3ccc(OCCCCCCCCCC[Si](*)(C)C)cc3)cc2)cc1 (repeat unit) | 35.00 °C
10 | *CC(*)C(=O)NC(C)(C)CC(C)=O (repeat unit) | 72.50 °C
11 | */C=C/C1CC(*)C(C2CC=CCC2)C1 (repeat unit) | 105.00 °C
12 | *c1ccc(-c2nc3cc(Oc4ccc(NC(=O)c5cc(C(=O)Nc6ccc(Oc7ccc8nc(-c9ccccc9)c(-c9ccc(N%10C(=O)c%11ccc%12c%13c(ccc(c%11%13)C%10=O)C(=O)N(*)C%12=O)cc9)nc8c7)cc6)cc(N6C(=O)c7ccccc7C6=O)c5)cc4)ccc3nc2-c2ccccc2)cc1 (repeat unit) | 345.00 °C
13 | *C(=O)c1ccc2c(c1)C(=O)N(c1ccc(Oc3cccc(-c4cc(-c5ccccc5)cc(-c5cccc(Oc6ccc(N7C(=O)c8ccc(*)cc8C7=O)cc6)c5)n4)c3)cc1)C2=O (repeat unit) | 260.00 °C
14 | *CC(*)(C)C(=O)OC1COC(CP(=O)(OCC)OCC)OC1 (repeat unit) | 101.50 °C
15 | *Oc1ccc(C(c2ccccc2)(c2ccccc2)c2ccc(Oc3ccc4c(=O)n5c6cc(-c7ccc8c(c7)nc7c9ccc(*)c%10cccc(c(=O)n87)c%109)ccc6nc5c5cccc3c45)cc2)cc1 (repeat unit) | 357.00 °C
16 | *CC(C)(C)C1C(=O)N(c2c(CC)cccc2CC)C(=O)C1* (repeat unit) | 210.00 °C
17 | *CC(*)C(=O)NC (repeat unit) | 171.00 °C
18 | *CC(*)c1ccc(C(F)(F)C(F)(F)C(F)(F)C(F)(F)C(F)(F)C(F)(F)C(F)(F)F)cc1 (repeat unit) | 42.00 °C
19 | *CCCCCC(=O)Nc1ccc(NC(=O)CCCCCN2C(=O)c3ccc(C(=O)c4ccc5c(c4)C(=O)N(*)C5=O)cc3C2=O)cc1 (repeat unit) | 200.00 °C
20 | *CC(C)CO* (repeat unit) | -55.00 °C
21 | *C(=O)c1cc(C(=O)c2ccc3c(c2)C(=O)N(c2cccc(N4C(=O)c5ccc(*)cc5C4=O)c2)C3=O)cc(-c2ccccc2)c1 (repeat unit) | 266.50 °C
22 | *c1cccc(P(=O)(c2cccc(-n3c(=O)c4cc5c(=O)n(*)c(=O)c5c(-c5ccccc5)c4c3=O)c2)c2cc(C(F)(F)F)cc(C(F)(F)F)c2)c1 (repeat unit) | 300.00 °C
23 | *c1ccc(C(=O)NCCCCCCCCNC(=O)c2ccc(-c3nc4ccccc4nc3*)cc2)cc1 (repeat unit) | 185.00 °C

Row | Structure (SMILES) | glass transition temperature
24 | *CC1CCC(COC(C)OC(=O)c2ccc(C(=O)OC(C)O*)cc2)CC1 (repeat unit) | 61.00 °C
25 | *c1ccc(Oc2ccc(N3C(=O)C(c4ccccc4)=C(c4ccc(C5=C(c6ccccc6)C(=O)N(*)C5=O)cc4)C3=O)cc2)cc1 (repeat unit) | 293.00 °C
26 | *Oc1ccc(Oc2ccc(C(=O)c3ccc(C(=O)c4ccc(*)cc4)cc3)cc2)cc1-c1ccc(Cl)c(C(F)(F)F)c1 (repeat unit) | 147.00 °C
27 | *CCc1ccc(CCNC(=O)CCCCCCCCC(=O)N*)cc1 (repeat unit) | 105.00 °C
28 | *O[Si](C)(C)CCCCCCCC[Si](*)(C)C (repeat unit) | -88.00 °C
29 | *Oc1ccc(S(=O)(=O)c2ccc(Oc3ccc(C(C)(C)c4ccc(*)c(N)c4)cc3N)cc2)c(N)c1 (repeat unit) | 237.10 °C
30 | *CCCCCCCCCCNC(=O)CCCCCCCCCCCCCCC(=O)N* (repeat unit) | 45.00 °C
31 | *c1ccc2c(c1)C(=O)N(c1cccc3c(N4C(=O)c5ccc(C(*)(C(F)(F)F)C(F)(F)F)cc5C4=O)cccc13)C2=O (repeat unit) | 390.00 °C
32 | *c1cc(CCOC(=O)C(C)Br)c(*)s1 (repeat unit) | 49.00 °C
33 | *O[Si](C)(C)O[Si](*)(C)CCCCOc1ccc(-c2ccc(C#N)cc2)cc1 (repeat unit) | -5.50 °C
34 | *CC(*)n1c2ccccc2c2ccccc21 (repeat unit) [Poly(N-vinyl carbazole)] | 150 ± 44 °C
35 | *O[Si](*)(C)CCCCCCOc1ccc(C(=O)Oc2ccc(OC)cc2)cc1 (repeat unit) | -2.00 °C
36 | *c1ccc(N[Se]Nc2ccc(S(*)(=O)=O)cc2)cc1 (repeat unit) | 62.00 °C
37 | *c1cccc(NC(=O)c2ccc(OCCOCCOc3ccc(C(=O)Nc4ccc5[nH]c(*)nc5c4)cc3)cc2)c1 (repeat unit) | 215.00 °C
38 | *c1ccc(-c2ccc(-c3ccc4c(c3)C(CCCCCCCC)(CCCCCCCC)c3cc(-c5ccc(*)s5)ccc3-4)s2)cn1 (repeat unit) | 127.50 °C
39 | *OC(C)CC(*)=O (repeat unit) | 3.40 °C
40 | *CC(*)(C)C(=O)OCCCCCCOc1ccc(C(=O)Oc2ccc(OC)cc2)cc1OC (repeat unit) | 49.00 °C
41 | *OC(COC(=O)c1ccccc1-c1ccccc1C(*)=O)COc1ccc(/N=N/c2ccc(C#N)cc2)cc1 (repeat unit) | 120.00 °C
42 | *c1ccc(C(=O)Nc2cccc(Oc3ccc(S(=O)(=O)c4ccc(Oc5cccc(NC(=O)c6ccc(N7C(=O)c8ccc(-c9cccc%10c9C(=O)N(*)C%10=O)cc8C7=O)cc6)c5)cc4)cc3)c2)cc1 (repeat unit) | 241.00 °C
43 | *c1ccc(Oc2cccc(Oc3ccc(N4C(=O)C5CCC(C6CCC7C(=O)N(*)C(=O)C7C6)CC5C4=O)cc3)c2)cc1 (repeat unit) | 215.00 °C
44 | *C1=C(c2ccc(-c3ccc4c(c3)C(CCCCCC)(CCCCCC)c3cc(-c5ccc(*)cc5)ccc3-4)cc2)C(=O)N(CCCCCCCC)C1=O (repeat unit) | 122.00 °C
45 | *OP(=O)(Oc1ccc(Cl)cc1)Oc1c(Cl)c(Cl)c(*)c(Cl)c1Cl (repeat unit) | 119.00 °C
